# Values of other authors, collected in article PMC8201753 (ACS Medicinal Chemistry Letters, 2021).
# Test system: ERα-dependent cells
# Conditions: cited from earlier work
structure (smiles),measurement,value
"C=CC(C)(C)OC[C@H]1O[C@H](O[C@@H]2C3=C([C@H](C)COC(C)=O)C[C@H](O)[C@]3(C)/C=C3/[C@@H](COC)CC[C@H]3[C@@H](C)[C@H]2O)[C@H](O)[C@@H](OC(C)=O)[C@@H]1O [FC-A, fusicoccin-A]",Growth of ERα-dependent cells,blocks growth
